According to patent publication US20250353873A1, “COMPOUNDS AND METHODS FOR MODULATING APOE EXPRESSION” (Ionis Pharmaceuticals, Inc., priority 2024, published 2025):
pIC50: −log10 of the molar value. Strand notation (5' to 3'): a small letter for the sugar, then the base; units joined by * are phosphorothioate-linked, units joined directly phosphodiester-linked; [ ] holds rarer units or linkages, { } end groups; capitals alone tell only the bases. [ms] = mesyl phosphoramidate linkage; e = 2'-O-(2-methoxyethyl) (MOE); k = constrained ethyl (cEt); [5mC] = 5-methylcytosine; d = 2'-deoxy (DNA)

How the values were obtained:
human APOE RNA [1] = assay: Dose-dependent inhibition of human APOE RNA in HepG2 cells, electroporation, 24 hours (Example 6); type: cell-based
Protocol: Modified oligonucleotides selected from the examples above were tested at various doses in HepG2.
HepG2 cells plated at a density of 50,000 cells per well were treated by electroporation with various concentrations of modified oligonucleotide as specified in the tables below. […] APOE RNA levels were measured using the human primer probe set RTS3073 (described herein above). APOE RNA levels were normalized to human GAPDH. Human GAPDH was amplified using human primer probe set RTS 104 (described herein above). Results are presented as percent APOE RNA, relative to the amount of APOE RNA in untreated control cells (% UTC). The half maximal inhibitory concentration (IC50) of each modified oligonucleotide was calculated in GraphPad Prism 10 (GraphPad Software, San Diego, CA) and is also presented in the tables below.

human APOE RNA [2] = assay: Dose-dependent inhibition of human APOE RNA in HepG2 cells, electroporation, 50,000 cells per well, RT-PCR normalized to GAPDH (Example 4, Tables 8-10); type: cell-based; settings: HepG2, electroporation
Protocol: Modified oligonucleotides selected from the examples above were tested at various doses in HepG2 cells. The modified oligonucleotides were tested in a series of experiments that had the same culture conditions. Each experiment is identified in separate tables below.
HepG2 cells plated at a density of 50,000 cells per well were treated by electroporation with various concentrations of modified oligonucleotide as specified in the tables below. […] APOE RNA levels were measured using the human primer probe set RTS3073 (forward sequence […], designated herein as SEQ ID NO: 7; reverse sequence CCATCAGCGCCCTCAGTT, designated herein as SEQ ID NO: 8; probe sequence […], designated herein as SEQ ID NO:9). APOE RNA levels were normalized to human GAPDH. […] Results are presented as percent APOE RNA, relative to the amount of APOE RNA in untreated control cells (UTC).

Substance | APOE RNA (% UTC) (human APOE RNA [2]; 5 nM, 24-hour treatment) | APOE RNA (% UTC) (human APOE RNA [2]; 13 nM, 24-hour treatment) | APOE RNA (% UTC) (human APOE RNA [2]; 33 nM, 24-hour treatment) | APOE RNA (% UTC) (human APOE RNA [2]; 82 nM, 24-hour treatment) | APOE RNA (% UTC) (human APOE RNA [2]; 205 nM, 24-hour treatment) | APOE RNA (% UTC) (human APOE RNA [2]; 512 nM, 24-hour treatment) | APOE RNA (% UTC) (human APOE RNA [2]; 1,280 nM, 24-hour treatment) | APOE RNA (% UTC) (human APOE RNA [2]; 3,200 nM, 24-hour treatment) | APOE RNA (% UTC) (human APOE RNA [2]; 8,000 nM, 24-hour treatment) | APOE RNA (% UTC) (human APOE RNA [2]; 20,000 nM, 24-hour treatment) | pIC50 (human APOE RNA [2]; 24-hour treatment) | APOE RNA (% UTC) (human APOE RNA [2]; 5 nM, 16-hour treatment) | APOE RNA (% UTC) (human APOE RNA [2]; 13 nM, 16-hour treatment) | APOE RNA (% UTC) (human APOE RNA [2]; 33 nM, 16-hour treatment) | APOE RNA (% UTC) (human APOE RNA [2]; 82 nM, 16-hour treatment) | APOE RNA (% UTC) (human APOE RNA [2]; 205 nM, 16-hour treatment) | APOE RNA (% UTC) (human APOE RNA [2]; 512 nM, 16-hour treatment) | APOE RNA (% UTC) (human APOE RNA [2]; 1,280 nM, 16-hour treatment) | APOE RNA (% UTC) (human APOE RNA [2]; 3,200 nM, 16-hour treatment) | APOE RNA (% UTC) (human APOE RNA [2]; 8,000 nM, 16-hour treatment) | also measured
1736516 (e[5mC]*eTeTeG*eG*kT*dG[ms]dA[ms]dA[ms]dT*d[5mC]*dT*dT*dT*dA[ms]dT*eT*eA*eA*eA; antisense) [Compound 1736516] | – | – | – | – | – | – | – | – | – | – | – | – | – | – | – | – | – | – | – | – | pIC50 (human APOE RNA [1]): 5.94; APOE RNA (% UTC) (human APOE RNA [1]; 5 nM): 106 % UTC; APOE RNA (% UTC) (human APOE RNA [1]; 13 nM): 110 % UTC; APOE RNA (% UTC) (human APOE RNA [1]; 33 nM): 121 % UTC; APOE RNA (% UTC) (human APOE RNA [1]; 82 nM): 117 % UTC; APOE RNA (% UTC) (human APOE RNA [1]; 205 nM): 58 % UTC; APOE RNA (% UTC) (human APOE RNA [1]; 512 nM): 59 % UTC; APOE RNA (% UTC) (human APOE RNA [1]; 1,280 nM): 39 % UTC; APOE RNA (% UTC) (human APOE RNA [1]; 3,200 nM): 29 % UTC; APOE RNA (% UTC) (human APOE RNA [1]; 8,000 nM): 32 % UTC; APOE RNA (% UTC) (human APOE RNA [1]; 20,000 nM): 22 % UTC
1736517 (e[5mC]*eTeTeG*kG*kT*dG[ms]dA[ms]dA[ms]dT*d[5mC]*dT*dT*dT*dA[ms]dT*eT*eA*eA*eA; antisense) [Compound 1736517] | – | – | – | – | – | – | – | – | – | – | – | – | – | – | – | – | – | – | – | – | pIC50 (human APOE RNA [1]): 6.33; APOE RNA (% UTC) (human APOE RNA [1]; 5 nM): 106 % UTC; APOE RNA (% UTC) (human APOE RNA [1]; 13 nM): 92 % UTC; APOE RNA (% UTC) (human APOE RNA [1]; 33 nM): 94 % UTC; APOE RNA (% UTC) (human APOE RNA [1]; 82 nM): 84 % UTC; APOE RNA (% UTC) (human APOE RNA [1]; 205 nM): 57 % UTC; APOE RNA (% UTC) (human APOE RNA [1]; 512 nM): 42 % UTC; APOE RNA (% UTC) (human APOE RNA [1]; 1,280 nM): 35 % UTC; APOE RNA (% UTC) (human APOE RNA [1]; 3,200 nM): 22 % UTC; APOE RNA (% UTC) (human APOE RNA [1]; 8,000 nM): 13 % UTC; APOE RNA (% UTC) (human APOE RNA [1]; 20,000 nM): 10 % UTC
1746785 (k[5mC]*kT*dT[ms]kG*dG[ms]dT[ms]dG[ms]dA[ms]dA[ms]dT*d[5mC]*dT*dT*dT*dA[ms]dT*kT*kA*dA[ms]kA; antisense) [Compound 1746785] | 90 | 93 | 97 | 84 | 83 | 53 | 48 | 29 | 8 | 35 | 5.98 | – | – | – | – | – | – | – | – | – | –
1746791 (k[5mC]*dT[ms]dT[ms]kG*kG*dT[ms]dG[ms]dA[ms]dA[ms]dT*d[5mC]*dT*dT*dT*dA[ms]dT*kT*kA*dA[ms]kA; antisense) [Compound 1746791] | 88 | 104 | 93 | 88 | 80 | 62 | 35 | 21 | 16 | 21 | 6.07 | – | – | – | – | – | – | – | – | – | –
1746805 (k[5mC]*kT*dT[ms]kG*dG[ms]dT[ms]dG[ms]dA[ms]dA[ms]dT*d[5mC]*dT*dT*dT*dA[ms]dT*dT[ms]kA*kA*kA; antisense) [Compound 1746805] | 95 | 109 | 93 | 94 | 65 | 75 | 41 | 39 | 29 | 11 | 5.87 | – | – | – | – | – | – | – | – | – | –
1746813 (k[5mC]*dT[ms]dT[ms]kG*dG[ms]kT*dG[ms]dA[ms]dA[ms]dT*d[5mC]*dT*dT*dT*dA[ms]dT*dT[ms]kA*kA*kA; antisense) [Compound 1746813] | 137 | 117 | 119 | 101 | 100 | 83 | 57 | 41 | 19 | 21 | 5.65 | – | – | – | – | – | – | – | – | – | –
1747051 (k[5mC]*kT*dT[ms]kG*dG[ms]kT*dG[ms]dA[ms]dA[ms]dT*d[5mC]*dT*dT*dT*dA[ms]dT*kT*dA[ms]dA[ms]kA; antisense) [Compound 1747051] | 111 | 117 | 152 | 128 | 111 | 67 | 76 | 42 | 31 | 9 | 5.54 | – | – | – | – | – | – | – | – | – | –
1747052 (k[5mC]*dT[ms]kT*kG*dG[ms]kT*dG[ms]dA[ms]dA[ms]dT*d[5mC]*dT*dT*dT*dA[ms]dT*kT*dA[ms]dA[ms]kA; antisense) [Compound 1747052] | 150 | 113 | 148 | 127 | 108 | 79 | 53 | 46 | 31 | 19 | 5.57 | – | – | – | – | – | – | – | – | – | –
1747053 (k[5mC]*dT[ms]dT[ms]kG*kG*kT*dG[ms]dA[ms]dA[ms]dT*d[5mC]*dT*dT*dT*dA[ms]dT*kT*dA[ms]dA[ms]kA; antisense) [Compound 1747053] | 115 | 131 | 124 | 107 | 70 | 49 | 57 | 39 | 38 | 32 | 5.66 | – | – | – | – | – | – | – | – | – | –
1757557: mixed MOE/cEt gapmer TTGGTGAATCTTTATTAA, sugar eeeeeddddddddeekke, linkages soossssssssssooss (eT*eTeGeG*eT*dG*dA*dA*dT*d[5mC]*dT*dT*dT*eAeTkT*kA*eA) [compound 1757557] | – | – | – | – | – | – | – | – | – | – | – | 79 | 88 | 89 | 88 | 86 | 89 | 94 | 59 | 36 | APOE RNA (% UTC) (human APOE RNA [2]; 20,000 nM, 16-hour treatment): 7 % UTC; pIC50 (human APOE RNA [2]; 16-hour treatment): 5.33
1757566 (eA*e[5mC]eTkTkG*dG*dT*dG*dA*dA*dT*d[5mC]*dT*dT*dT*eAeTeT*eA*eA; antisense) [Compound 1757566] | – | – | – | – | – | – | – | – | – | – | – | 82 | 87 | 85 | 73 | 77 | 49 | 31 | 22 | 17 | APOE RNA (% UTC) (human APOE RNA [2]; 20,000 nM, 16-hour treatment): 21 % UTC; pIC50 (human APOE RNA [2]; 16-hour treatment): 6.26
1757569 (eA*e[5mC]eTkTkG*dG*dT*dG*dA*dA*dT*d[5mC]*dT*dT*dT*kAeTeT*eA*eA; antisense) [Compound 1757569] | – | – | – | – | – | – | – | – | – | – | – | 101 | 91 | 82 | 81 | 60 | 38 | 24 | 24 | 18 | APOE RNA (% UTC) (human APOE RNA [2]; 20,000 nM, 16-hour treatment): 18 % UTC; pIC50 (human APOE RNA [2]; 16-hour treatment): 6.41
1766537 (eT*eTeGeGeT*dG[ms]dA[ms]dA[ms]dT*d[5mC]*dT*dT*dT[ms]dA*dT*kTkAeA*eA*e[5mC]; antisense) [Compound 1766537] | – | – | – | – | – | – | – | – | – | – | – | 95 | 111 | 108 | 89 | 90 | 85 | 62 | 36 | 21 | APOE RNA (% UTC) (human APOE RNA [2]; 20,000 nM, 16-hour treatment): 5 % UTC; pIC50 (human APOE RNA [2]; 16-hour treatment): 5.70
